Article PMC6222380 (Molecules : A Journal of Synthetic Chemistry and Natural …, 2018)
“And” between values parts separate entries of the source, which are not always exact repeats. Equal entries are not always repeated. Where two headings read alike, the source gives them in different places. Values belong to the compound of their own block, whether it stands above or below them.

How the values were obtained:
CB1 receptor = target: T1, CB1 receptor (Homo sapiens, UniProt P21554); test: Competitive [3H]-CP55,940 radioligand binding assay, CB1; conditions: for Further binding analysis at CB1 (binding curve outcome): curves plateaued well before 100% receptor occupancy (Figure S2)
T1 construct: transiently transfected with full-length human recombinant cDNA (OriGene, Rockville, MD, USA); host or cells: HEK293
Protocol: (§1) HEK293 cells were collected and transiently transfected with full-length human recombinant cDNA (OriGene, Rockville, MD, USA) containing expression clones to generate separate cell lines expressing either the CB1 or CB2 receptors (50 µg/mL) using electroporation (70 ms, single pulse, 150 volts). Transfected cells were grown in a 150 cm^2 Petri dish at 37 °C. G418 antibiotic solution (800 μg/mL) was used for selection. After selection, the HEK293 cells were further cultured until single colonies were obtained. The colonies with binding ratio (%) over 80% were chosen for binding and functional assays.
(§2) Cell plasma membranes were prepared from cells with stable expression of CB1 or CB2 receptors. Cells grown to confluency were lysed and scraped in cold 50 mM Tris-HCl buffer at pH 7.4 and then centrifuged at 1000 rpm for 10 min at 4 °C. The supernatant was discarded while the pellets were resuspended in the same buffer. A Sonic Dismembrator Model 100 (Fisher Scientific, Pittsburgh, PA, USA) was used to homogenize the cell suspension for 30 s, which was then centrifuged at 3165 rpm for 10 min at 4 °C to separate the membranes and cytosolic fractions. The supernatant was saved, and the pellet underwent the suspension and homogenization process repeated two more times with the same conditions. The supernatants were combined and centrifuged at 13,650 rpm for 40 min at 4 °C. The pellet was re-suspended in cold 50 mM Tris-HCl buffer, aliquoted into 2 mL vials, and stored at −80 °C. The total membrane protein concentration was measured using a Pierce BCA Protein Assay Kit (Thermo Scientific, Rockford, IL, USA) as per the manufacturer’s protocol.
(§3) Competitive binding assays were performed with a modified rapid filtration assay described by Ma et al. (2007) and Felder et al. (1992). […] The reaction was terminated via rapid vacuum filtration with cold Tris-HCl with 0.1% BSA through a 96-well UniFilter GF/C filter precoated with 0.5% Polyethyleneimine (PEI,) to separate bound and unbound radioligand. Filter plates were dried at 50 °C for at least 30 min, then 25 μL MicroScint-20 was applied to each filter and the plates were read on a TopCount NXT HTS Microplate Scintillation Counter (PerkinElmer, Waltham, MA). Filter bound radioactivity was recorded in counts per minute (CPM).
(§4) The percent binding of the nonlabeled control to the receptor was calculated using total, specific, and nonspecific binding. […] All the experimental data were analyzed using a nonlinear regression curve fit model using GraphPad Prism 5.0 software (GraphPad Software, Inc., San Diego, CA, USA) and the Kd value was calculated. Each compound was tested in triplicate, unless stated otherwise.
(§5) Percent displacement of radioligand was determined using the following equation:(1) % displacement of radioligand=100 –(compound.CPM−nonspecific.CPM/specific.CPM ×100)
(§6) The IC50 and Ki values were calculated from a nonlinear regression curve fit model using GraphPad Prism 5.0 software (GraphPad Software, Inc., San Diego, CA, USA).

CB2 receptor = target: T2, CB2 receptor (Homo sapiens, UniProt P34972); test: Competitive [3H]-CP55,940 radioligand binding assay, CB2; conditions: for IC50: Table 1, superscript a = up to solubility limit, read-out: IC50 ± SEM CB2; for Ki: read-out: Ki ± SEM CB2
T2 construct: transiently transfected with full-length human recombinant cDNA (OriGene, Rockville, MD, USA); host or cells: HEK293
Protocol: as §1, §2, §3, §4, §5, §6

[1] = target: T3, human cannabinoid type 1 receptor (Homo sapiens, UniProt P21554); test: CB1 GTPγS functional assay; type: biochemical
T3 construct: transiently transfected with full-length human recombinant cDNA (OriGene, Rockville, MD, USA); host or cells: HEK293
Protocol: The CB1 GTPγS functional assays were performed as previously described with some modifications. The assays were performed in […] of 50 mM Tris-HCl, pH = 7.4, 150 mM NaCl, 9 mM MgCl2, 0.2 mM EDTA, 1.4 mg/mL essentially fatty acid free BSA, 50 pM [^35S]-GTPγS ([^35S]-guanosine 5′-(γ-thio) triphosphate (PerkinElmer, Waltham, Massachusetts)), and 30 μg of protein per well harvested from HEK293 cells stably transfected with a plasmid overexpressing the human cannabinoid type 1 receptor. […] Plates were incubated for 90 min at 37 °C with gentle agitation in 96-well microplates, harvested with a PerkinElmer FilterMate Harvester through Unifilter GF/B filter plates (prewetted for 30 min with 0.3% BSA), and then washed 10× with […] of ice-cold 50 mM TrisHCl, pH 7.4. The filter plates were dried at 50 °C for at least 30 min. The radioactivity retained on the filters was quantified by adding […] MicroScint20 per well, incubating the filter plate overnight at room temperature to allow the radioactivity to solubilize into the scintillation fluid, and counting on a TopCount NXT Microplate Scintillation counter. Percent over basal was calculated in Microsoft Excel by subtracting the mean basal control from each value obtained and then dividing by the basal specific activity (mean basal control∓mean nonspecific binding control). Dose response curves (± SEM) of percent over basal versus log of the molar concentration of unlabeled ligand(s) were generated by a nonlinear curve fit model using GraphPad Prism 5.0 software.

[2] = Table 1, initial full-curve binding, superscript a = up to solubility limit, read-out: IC50 ± SEM CB1
[3] = Table 1 and text, initial full-curve binding, read-out: Ki ± SEM CB1
[4] = Table S1 preliminary screening, 10 μM

T1 sequence (P21554 whole entry): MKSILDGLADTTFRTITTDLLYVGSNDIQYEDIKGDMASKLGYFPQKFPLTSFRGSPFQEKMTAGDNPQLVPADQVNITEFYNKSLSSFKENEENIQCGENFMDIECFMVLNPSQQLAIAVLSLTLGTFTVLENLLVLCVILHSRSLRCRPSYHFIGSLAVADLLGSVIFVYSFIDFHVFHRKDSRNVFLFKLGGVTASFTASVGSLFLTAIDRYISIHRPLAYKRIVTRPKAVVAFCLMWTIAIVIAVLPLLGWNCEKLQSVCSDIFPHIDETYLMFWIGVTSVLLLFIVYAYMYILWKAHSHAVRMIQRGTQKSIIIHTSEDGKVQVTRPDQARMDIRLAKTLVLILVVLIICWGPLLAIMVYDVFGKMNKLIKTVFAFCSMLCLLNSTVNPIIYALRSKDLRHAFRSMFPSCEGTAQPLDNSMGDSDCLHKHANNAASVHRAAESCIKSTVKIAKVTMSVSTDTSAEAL
T3 sequence (P21554 whole entry): as above
T2 sequence (P34972 whole entry): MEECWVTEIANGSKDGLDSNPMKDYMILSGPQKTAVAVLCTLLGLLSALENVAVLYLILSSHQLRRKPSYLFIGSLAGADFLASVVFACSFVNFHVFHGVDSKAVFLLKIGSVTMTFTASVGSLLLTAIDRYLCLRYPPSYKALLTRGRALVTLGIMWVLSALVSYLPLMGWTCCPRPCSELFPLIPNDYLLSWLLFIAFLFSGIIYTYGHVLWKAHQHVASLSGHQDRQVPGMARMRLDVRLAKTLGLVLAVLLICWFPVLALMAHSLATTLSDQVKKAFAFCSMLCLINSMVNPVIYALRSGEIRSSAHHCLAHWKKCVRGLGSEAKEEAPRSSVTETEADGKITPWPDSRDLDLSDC

IC50 (CB1 receptor; 16 rescreened, data from Figure 4, up to solubility limit, read-out: IC50 ± SEM CB1 (rescreen)): 242 ± 70 nM
Ki (CB1 receptor; 16 rescreened, data from Figure 4, up to solubility limit, read-out: Ki ± SEM CB1 (rescreen)): 121 ± 40 nM
IC50 (CB1 receptor; [2]): 20800 ± 4900 nM
Ki (CB1 receptor; [3]): 10400 ± 2500 nM
% displacement at 10 μM CB1 (CB1 receptor; [4]): 61.8%
Ki (CB1 receptor; rescreen experiment, value printed in picture, read-out: CB1 Receptor Binding Ki (printed in Figure 4)): 121 nM
% displacement at 10 μM CB2 (CB2 receptor; [4]): 40.2%
Functional phenotype at CB1 in GTPγS assay [1]: inverse agonist
EC50 ([1]; read-out: EC50 CB1 GTPγS): 128 nM
Compound: Cc1noc(-c2ccc(O)cc2O)c1-c1ccc(Br)cc1 [Compound 16]

IC50 (CB1 receptor; [2]): > 5300 nM
Ki (CB1 receptor; [3]): > 2600 nM
% displacement at 10 μM CB1 (CB1 receptor; [4]): 69.9% and > 50%
IC50 (CB2 receptor): > 5930 nM
Ki (CB2 receptor; Table 1 and text): > 2970 nM
% displacement at 10 μM CB2 (CB2 receptor; [4]): 63% and > 50%
EC50 [1]: 1600 nM
Functional phenotype at CB1 in GTPγS assay [1]: inverse agonists
Compound: COC(=O)CC(c1ccc2c(c1)OCO2)c1oc(CSc2ccccc2)cc(=O)c1O (stereo not shown) [Compound 12]

Compound: COc1ccc(-n2cc(C(=O)O)c3c2C(c2ccc(O)c(OC)c2)CC(=O)N3)cc1 (stereo not shown) [Compound 11]
% displacement at 10 μM CB1 (CB1 receptor; [4]): 37.6%
% displacement at 10 μM CB2 (CB2 receptor; [4]): 13.1%

Compound: COC(=O)c1ccc(C=C2Oc3c(ccc(O)c3CN(CC(C)C)CC(C)C)C2=O)cc1 [Compound 17]
Further binding analysis at CB1 (binding curve outcome) (CB1 receptor): no true affinity
% displacement at 10 μM CB2 (CB2 receptor; [4]): 35%

Compound: COc1cc(C)cc2oc(=O)c(CC(=O)N[C@@H](CSCc3ccccc3)C(=O)O)c(C)c12 [Compound 5]
% displacement at 10 μM CB1 (CB1 receptor; [4]): 14%
% displacement at 10 μM CB2 (CB2 receptor; [4]): 15.5%

Compound: O=C(COc1cc(O)c2c(=O)cc(-c3ccccc3)oc2c1)NCCCN1CCCC1=O [Compound 9]
% displacement at 10 μM CB1 (CB1 receptor; [4]): 28.6%
% displacement at 10 μM CB2 (CB2 receptor; [4]): 30.2%

IC50 (CB1 receptor; [2]): 24600 ± 2600 nM
Ki (CB1 receptor; [3]): 12300 ± 1300 nM
% displacement at 10 μM CB1 (CB1 receptor; [4]): 69%
IC50 (CB2 receptor): 101 ± 35 nM
Ki (CB2 receptor; Table 1 and text): 51 ± 10 nM
% displacement at 10 μM CB2 (CB2 receptor; [4]): 61.2%
Compound: CN(Cc1ccccc1)Cc1c(O)ccc2c1OC(=Cc1cn(C)c3ccccc13)C2=O [Compound 18]

Compound: O=c1[nH]n(C2CCCCCC2)c2nc3c(oc4c(O)c(O)ccc43)c(-c3ccc(O)cc3)c12 [Compound 13]
% displacement at 10 μM CB1 (CB1 receptor; [4]): 23.1%
% displacement at 10 μM CB2 (CB2 receptor; [4]): 37.4%

Compound: COC(=O)CC(c1ccc(O)cc1)c1oc(CSc2ccccc2)cc(=O)c1O (stereo not shown) [Compound 14]
% displacement at 10 μM CB1 (CB1 receptor; [4]): 18.7%
% displacement at 10 μM CB2 (CB2 receptor; [4]): 30%

Compound: COCCN1C(=O)C(O)=C(C(=O)c2ccc3c(c2)CC(C)O3)C1c1ccc(C(C)C)cc1 (stereo not shown) [Compound 3]
% displacement at 10 μM CB1 (CB1 receptor; [4]): ~ 10%
Ki (CB2 receptor; Table 1 and text): 2600 nM
% displacement at 10 μM CB2 (CB2 receptor; [4]): 51% and > 50%

Compound: COc1ccc2[nH]c3c(c2c1)CCNC3c1c(O)n(CCc2ccccc2)c(=S)[nH]c1=O (stereo not shown) [Compound 7]
Further binding analysis at CB1 (binding curve outcome) (CB1 receptor): no true affinity
% displacement at 10 μM CB2 (CB2 receptor; [4]): 15.7%

Compound: Cc1cc(O)c2c(C)c(CC(=O)N[C@@H](CSCc3ccccc3)C(=O)O)c(=O)oc2c1 [Compound 6]
% displacement at 10 μM CB1 (CB1 receptor; [4]): 28%
% displacement at 10 μM CB2 (CB2 receptor; [4]): 26.7%

Compound: COc1ccc2c(ccn2CCC(=O)N[C@@H](Cc2c[nH]c3ccccc23)C(=O)O)c1 [Compound 10]
% displacement at 10 μM CB1 (CB1 receptor; [4]): 30.2%
% displacement at 10 μM CB2 (CB2 receptor; [4]): 17.3%

% displacement at 10 μM CB1 (CB1 receptor; Table 2, 10 µM): 29.8%
Ki (CB2 receptor; Table 2, analogs of compound 16): 156 ± 17.3 nM
% displacement at 10 μM CB2 (CB2 receptor; Table 2, 10 µM): 97.2%
Compound: CCCCCCc1cc(-c2onc(C)c2-c2ccc(Br)cc2)c(O)cc1OC [PCB-164]

IC50 (CB1 receptor; [2]): 3200 ± 1000 nM
Ki (CB1 receptor; [3]): 1600 nM and 1620 nM
% displacement at 10 μM CB1 (CB1 receptor; [4]): 81.8%
IC50 (CB2 receptor): 3250 ± 500 nM
Ki (CB2 receptor; Table 1 and text): 1600 nM and 1620 nM
% displacement at 10 μM CB2 (CB2 receptor; [4]): 67.2%
EC50 [1]: 759 nM
Functional phenotype at CB1 in GTPγS assay [1]: inverse agonists
Compound: COc1ccc2[nH]c3c(c2c1)CCN1C(=O)CN(CCc2c[nH]c4ccccc24)C(=O)[C@]31C [Compound 2]

Compound: COc1ccccc1NC(=O)C1CC(O)CN1C(=O)OCc1ccccc1 (stereo not shown) [Compound 4]
% displacement at 10 μM CB1 (CB1 receptor; [4]): 13.9%

Ki (CB1 receptor; Table 2, analogs of compound 16, read-out: Ki ± SEM CB1): > 10000 nM
% displacement at 10 μM CB1 (CB1 receptor; Table 2, 10 µM): 33.0%
Compound: Oc1ccc(-c2onc(C(F)(F)F)c2-c2ccccc2)c(O)c1 [PCB-165]

Compound: Cc1ccc(COc2ccc(-c3nc(N)ncc3Oc3ccccc3Br)c(O)c2)cc1 [Compound 15]
Further binding analysis at CB1 (binding curve outcome) (CB1 receptor): no true affinity
% displacement at 10 μM CB2 (CB2 receptor; [4]): 35.5%

Compound: O=C(O)C(Cc1ccccc1)NCc1c(O)ccc2c(-c3ccccc3)cc(=O)oc12 (stereo not shown) [Compound 1]
% displacement at 10 μM CB1 (CB1 receptor; [4]): 14.1%
